The subject of test [1] is H9C2 cardiomyocytes. Put plainly: Quantification of phenylephrine-induced EGFP synthesis as surrogate for cell size (hypertrophy). It counts as cell-based, rat. The settings on record: for SUL EGFP Inhibition (%): 30 μM SUL compound, calculated as 100%-Emax; for Expression of EGFP induced by phenylephrine (FIG. 3): preincubation with 30 μM compound. As to the method: (§1) Rat H9C2 cardiomyoblasts (ATCC CRL-1446) were maintained in DMEM medium containing 10% fetal bovine serum and 1% Penicillin-Streptomycin solution (Sigma-Aldrich) and passaged when the cultures reach a confluency of 70%. Prior to experiments, H9C2 myoblasts were differentiated to cardiomyocytes by serum reduction (to 1%) and stimulation with 20 nM retinoic acid for 5 days. Differentiated H9C2 cardiomyocytes were seeded at 0.6·10^5 cells/cm^2 for all experiments.
H9C2 cardiomyocytes (0.6·10^5 cells/cm2) were infected with CMV-copGPF (MOI 10) in culture medium without serum for 24 h. H9C2 cardiomyocytes were pre-incubated with 30 μM SUL compounds under standard culture conditions for 30 min and then stimulated with phenylephrine (dose range 2·10^−5 to 1·10^−11 M) for an additional period of 24 h. Thereafter H9C2 cardiomyocytes were lysed in 100 μl soft lysis buffer (25 mM Tris, 2 mM Dithiothreitol, 2 mM EDTA, 1% Triton X-100, pH 7.4). per well and fluorescence intensity of the obtained supernatant was recorded in a CLARIOStar Plus plate reader (BMG Labtech) equipped with a FITC filter set (excitation 488 nm with 10 nm bandwidth; emission 515 with a 20 nm bandwidth).
All experiments were performed in triplicate per condition and averaged. Data obtained from two individual experiments were used for evaluation in GraphPad Prism 8.0 (GraphPad Software Inc, Ca). Average H9C2 cardiomyocyte cell size was associated to average EGFP levels using linear regression. Phenylephrine-induced EGFP synthesis was normalized, using baseline levels as 0% and maximum EGFP recordings as 100%. All datasets were normalized to vehicle controls. 4 parameter non-linear regression was used to determine the efficacy of potency of phenylephrine to induce GFP synthesis. The efficacy of SUL compounds to inhibit phenylephrine-induced EGFP synthesis was calculated as 100%-Emax, wherein Emax is the maximal effect evoked by phenylephrine.

Test [2] concerns H9C2 cardiomyocytes. Put plainly: Determination of cell size (cell surface area) after phenylephrine. The conditions noted are these: 24 h. Type of test: cell-based, rat. On the procedure: as §1
H9C2 cardiomyocytes were serum starved for 24 h and thereafter exposed to different concentrations of phenylephrine (dose range 2·10^−5 to 1·10^−11 M) for an additional 24 h. Cells were washed in ice-cold PBS and fixed by 2% paraformaldehyde in PBS at room temperature for 10 min. Fixed cells were incubated with 5 μM Rhodamine-conjugated Phalloidin (ThermoFisher Scientific) and washed extensively with PBS. Fluorescent pictures were taken randomly with an Zeiss AxioObserver Z1 microscope and cell size was analyzed with CellProfiler software [McQuin, 2018].

Test [3] concerns H9C2 cardiomyocytes. Kind of test: Protein synthesis by H9C2 cardiomyocytes after phenylephrine. Type of test: cell-based. The conditions noted are these: Rattus norvegicus, FIG. 2D, read-out: EC50 for increase of protein synthesis.

The text below walks through data of US20230330060A1, “COMPOUNDS FOR TREATMENT OF HEART FAILURE” (Sulfateq B.V., priority 2020, published 2023).

In general, EC50 refers to the midpoint of the concentration-response curve.

As for `C[C@H]1CCC/C=C/[C@@H]2C[C@H](O)C[C@H]2[C@H](O)/C=C/C(=O)O1` [Brefeldin A, reference compound], the “Phenylephrine-induced increase in EGFP fluorescence (FIG. 2F)” value in test [1] (addition of protein synthesis inhibitor) is reported as “inhibits the phenylephrine-induced increase in EGFP fluorescence”.

In the case of `CNC[C@H](O)c1cccc(O)c1` [Phenylephrine], in test [2] (2·10^−5 M phenylephrine, vehicle-treated control 791±263 μm^2), the “H9C2 cardiomyocyte cell surface area” value was determined as 3278±296 μm^2. For the same compound, the EC50 in test [2] (Rattus norvegicus, H9c2, phenylephrine 1·10^−11 to 2·10^−5 M, FIG. 2A, read-out: EC50 for increase of H9C2 cardiomyocyte cell surface area) was determined as 0.74 nM; in test [1] (Rattus norvegicus, H9C2 cardiomyocytes transformed with CMV-EGFP lentiviral particles, FIG. 2B, read-out: EC50 for increase of EGFP fluorescence) it was 5.2 nM; in test [3] it was 0.55 nM.

As to `Cc1c(C)c2c(c(C)c1O)CCC(C)(C(=O)O)O2` (stereo not shown) [SUL-11, 6-hydroxy-2,5,7,8-tetramethylchroman-2-carboxylic acid (Trolox), reference compound], in test [1], the “SUL EGFP Inhibition (%)” value was 54.05% and the “Expression of EGFP induced by phenylephrine (FIG. 3)” value (from here on “Expression of EGFP induced”) is listed as “reduced the expression of EGFP”.

Regarding `Cc1c(C)c2c(c(C)c1O)CC[C@@](C)(C(=O)N[C@@H]1CCCNC1)O2` [SUL-13, (S)-6-hydroxy-2,5,7,8-tetramethyl-N-((R)-piperidin-3-yl)chromane-2-carboxamide], in test [1], the “SUL EGFP Inhibition (%)” value is 68.85% and the “Expression of EGFP induced” value is reported as “reduced the expression of EGFP”.

In the case of `COC(=O)CNC(=O)C1(C)CCc2c(C)c(O)c(C)c(C)c2O1` (stereo not shown) [SUL-99, methyl [(6-hydroxy-2,5,7,8-tetramethyl-3,4-dihydro-2H-1-benzopyran-2-carbonyl)amino]acetate, reference compound], in test [1], the “SUL EGFP Inhibition (%)” value is recorded as 55.11% and the “Expression of EGFP induced” value is “reduced the expression of EGFP”.

Consider `Cc1c(C)c2c(c(C)c1O)CC[C@@](C)(C(=O)N1CCN(CCO)CC1)O2` [SUL-138, (S)-(6-hydroxy-2,5,7,8-tetramethylchroman-2-yl)(4-(2-hydroxyethyl)piperazin-1-yl)methanone], for which, in test [1], the “SUL EGFP Inhibition (%)” value is reported as 63.18% and the “Expression of EGFP induced” value is reported as “reduced the expression of EGFP”.

As to `Cc1c(C)c(O)c(CC[C@@](C)(O)C(=O)N2CCN(CCO)CC2)c(C)c1O` [SUL-138M2, 4-(2,5-dihydroxy-3,4,6-trimethylphenyl)-2-hydroxy-1-(4-(2-hydroxyethyl)piperazin-1-yl)-2-methylbutan-1-one], the “SUL EGFP Inhibition (%)” value in test [1] is listed as 43.92%.

In the case of `Cc1c(C)c2c(c(C)c1O)CC[C@@](C)(C(=O)N1CCNCC1)O2` [SUL-151, (S)-(6-hydroxy-2,5,7,8-tetramethylchroman-2-yl)(piperazin-1-yl)methanone], in test [1], the “SUL EGFP Inhibition (%)” value is 56.8% and the “Expression of EGFP induced” value was “reduced the expression of EGFP”.
